How the values were obtained:
THZ1 = compound: CN(C)C/C=C/C(=O)Nc1ccc(C(=O)Nc2cccc(Nc3ncc(Cl)c(-c4c[nH]c5ccccc45)n3)c2)cc1 [THZ1]; assay: GR value, 72 h; higher = faster growth (1 = untreated, <0 = killing);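 also: breast cancer and non-malignant breast epithelial lines, nine half-log doses, viable cells counted by Hoechst and LIVE/DEAD dye imaging versus time-zero plates and DMSO controls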
LEE011/Ribociclib = compound: CN(C)C(=O)c1cc2cnc(Nc3ccc(N4CCNCC4)cn3)nc2n1C1CCCC1 [LEE011/Ribociclib]; assay: as above
YKL-5-124 = compound: C=CC(=O)Nc1ccc(C(=O)Nc2[nH]nc3c2CN(C(=O)N[C@H](CN(C)C)c2ccccc2)C3(C)C)cc1 [YKL-5-124]; assay: as above
[1] = compound: CCN1CCN(Cc2ccc(Nc3ncc(F)c(-c4cc(F)c5nc(C)n(C(C)C)c5c4)n3)nc2)CC1; assay: as above
Flavopiridol [2] = compound: T1, CN1CC[C@H](c2c(O)cc(O)c3c(=O)cc(-c4ccccc4Cl)oc23)[C@H](O)C1 [Flavopiridol]; assay: as above
THZ531 = compound: CN(C)C/C=C/C(=O)Nc1ccc(C(=O)N2CCC[C@@H](Nc3ncc(Cl)c(-c4c[nH]c5ccccc45)n3)C2)cc1 [THZ531]; assay: as above
[3] = compound: CCc1cnn2c(NCc3ccc[n+]([O-])c3)cc(N3CCCC[C@H]3CCO)nc12; assay: as above
[4] = compound: CC(=O)c1c(C)c2cnc(Nc3ccc(N4CCNCC4)cn3)nc2n(C2CCCC2)c1=O; assay: as above
Neratinib/HKI272 = compound: CCOc1cc2ncc(C#N)c(Nc3ccc(OCc4ccccn4)c(Cl)c3)c2cc1NC(=O)/C=C/CN(C)C [Neratinib/HKI272]; assay: as above
BSJ-03-123 = compound: CC(=O)c1c(C)c2cnc(Nc3ccc(N4CCN(CCOCCOCCOCCNC(=O)COc5cccc6c5C(=O)N(C5CCC(=O)NC5=O)C6=O)CC4)cn3)nc2n(C2CCCC2)c1=O [BSJ-03-123]; assay: as above
[5] = compound: CCN1CCN(Cc2ccc(Nc3ncc(F)c(-c4cc(F)c5nc(C)n(C(C)C)c5c4)n3)nc2)CC1; assay: increase in dead-cell fraction, 72 h; higher = more death;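 also: breast cancer cell lines in 384-well plates, stained with Hoechst plus LIVE/DEAD far red dye and imaged, cells above an LDR intensity threshold counted dead, Hoechst-negative corpses included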
Flavopiridol [6] = compound: T1, Flavopiridol; assay: as above

Cell Line: EFM19
- GR value (THZ1; 0.0001 µM): 0.946 GR
- GR value (THZ1; 0.0003162 µM): 1.1 GR
- GR value (THZ1; 0.001 µM): 1.04 GR
- GR value (THZ1; 0.003162 µM): 0.932 GR
- GR value (THZ1; 0.01 µM): 1.01 GR
- GR value (THZ1; 0.03162 µM): 0.922 GR
- GR value (THZ1; 0.1 µM): 0.86 GR
- GR value (THZ1; 0.3162 µM): 0.69 GR
- GR value (THZ1; 1 µM): -0.299 GR
- GR value (LEE011/Ribociclib; 0.001 µM): 0.892 GR
- GR value (LEE011/Ribociclib; 0.003162 µM): 0.802 GR
- GR value (LEE011/Ribociclib; 0.01 µM): 0.825 GR
- GR value (LEE011/Ribociclib; 0.03162 µM): 0.914 GR
- GR value (LEE011/Ribociclib; 0.1 µM): 0.688 GR
- GR value (LEE011/Ribociclib; 0.3162 µM): 0.61 GR
- GR value (LEE011/Ribociclib; 1 µM): 0.6 GR
- GR value (LEE011/Ribociclib; 3.162 µM): 0.415 GR
- GR value (LEE011/Ribociclib; 10 µM): 0.355 GR
- GR value (YKL-5-124; 0.001 µM): 0.518 GR
- GR value (YKL-5-124; 0.003162 µM): 0.329 GR
- GR value (YKL-5-124; 0.01 µM): 0.259 GR
- GR value (YKL-5-124; 0.03162 µM): 0.219 GR
- GR value (YKL-5-124; 0.1 µM): 0.134 GR
- GR value (YKL-5-124; 0.3162 µM): 0.178 GR
- GR value (YKL-5-124; 1 µM): 0.106 GR
- GR value (YKL-5-124; 3.162 µM): 0.149 GR
- GR value (YKL-5-124; 10 µM): 0.0614 GR
- GR value ([1]; 0.001 µM): 0.984 GR
- GR value ([1]; 0.003162 µM): 0.967 GR
- GR value ([1]; 0.01 µM): 0.802 GR
- GR value ([1]; 0.03162 µM): 0.442 GR
- GR value ([1]; 0.1 µM): 0.359 GR
- GR value ([1]; 0.3162 µM): 0.337 GR
- GR value ([1]; 1 µM): 0.327 GR
- GR value ([1]; 3.162 µM): 0.359 GR
- GR value ([1]; 10 µM): 0.269 GR
- GR value (Flavopiridol [2]; 0.0001 µM): 1.03 GR
- GR value (Flavopiridol [2]; 0.0003162 µM): 0.976 GR
- GR value (Flavopiridol [2]; 0.001 µM): 0.978 GR
- GR value (Flavopiridol [2]; 0.003162 µM): 0.991 GR
- GR value (Flavopiridol [2]; 0.01 µM): 0.877 GR
- GR value (Flavopiridol [2]; 0.03162 µM): 0.976 GR
- GR value (Flavopiridol [2]; 0.1 µM): 0.809 GR
- GR value (Flavopiridol [2]; 0.3162 µM): 0.466 GR
- GR value (Flavopiridol [2]; 1 µM): -0.199 GR
- GR value (THZ531; 0.0001 µM): 0.996 GR
- GR value (THZ531; 0.0003162 µM): 0.978 GR
- GR value (THZ531; 0.001 µM): 0.907 GR
- GR value (THZ531; 0.003162 µM): 0.911 GR
- GR value (THZ531; 0.01 µM): 1.07 GR
- GR value (THZ531; 0.03162 µM): 0.896 GR
- GR value (THZ531; 0.1 µM): 1 GR
- GR value (THZ531; 0.3162 µM): 0.801 GR
- GR value (THZ531; 1 µM): -0.59 GR
- GR value ([3]; 0.0001 µM): 1.1 GR
- GR value ([3]; 0.0003162 µM): 1.09 GR
- GR value ([3]; 0.001 µM): 1.15 GR
- GR value ([3]; 0.003162 µM): 1.15 GR
- GR value ([3]; 0.01 µM): 1.05 GR
- GR value ([3]; 0.03162 µM): 0.509 GR
- GR value ([3]; 0.1 µM): -0.295 GR
- GR value ([3]; 0.3162 µM): -0.448 GR
- GR value ([3]; 1 µM): -0.534 GR
- GR value ([4]; 0.0003162 µM): 1.05 GR
- GR value ([4]; 0.001 µM): 1.03 GR
- GR value ([4]; 0.003162 µM): 1.03 GR
- GR value ([4]; 0.01 µM): 1.02 GR
- GR value ([4]; 0.03162 µM): 0.941 GR
- GR value ([4]; 0.1 µM): 0.843 GR
- GR value ([4]; 0.3162 µM): 0.626 GR
- GR value ([4]; 1 µM): 0.401 GR
- GR value ([4]; 3.162 µM): 0.284 GR
- GR value (Neratinib/HKI272; 0.0003162 µM): 1.07 GR
- GR value (Neratinib/HKI272; 0.001 µM): 1.12 GR
- GR value (Neratinib/HKI272; 0.003162 µM): 1.12 GR
- GR value (Neratinib/HKI272; 0.01 µM): 1.05 GR
- GR value (Neratinib/HKI272; 0.03162 µM): 1.06 GR
- GR value (Neratinib/HKI272; 0.1 µM): 1.03 GR
- GR value (Neratinib/HKI272; 0.3162 µM): 0.933 GR
- GR value (Neratinib/HKI272; 1 µM): 0.811 GR
- GR value (Neratinib/HKI272; 3.162 µM): 0.688 GR
- GR value (BSJ-03-123; 0.001 µM): 0.951 GR
- GR value (BSJ-03-123; 0.003162 µM): 0.918 GR
- GR value (BSJ-03-123; 0.01 µM): 0.806 GR
- GR value (BSJ-03-123; 0.03162 µM): 0.733 GR
- GR value (BSJ-03-123; 0.1 µM): 0.717 GR
- GR value (BSJ-03-123; 0.3162 µM): 0.654 GR
- GR value (BSJ-03-123; 1 µM): 0.48 GR
- GR value (BSJ-03-123; 3.162 µM): 0.447 GR
- GR value (BSJ-03-123; 10 µM): 0.117 GR
- increase in dead-cell fraction ([5]; 0.001 µM): -0.0101
- increase in dead-cell fraction ([5]; 0.003162 µM): -0.0007
- increase in dead-cell fraction ([5]; 0.01 µM): 0.0035
- increase in dead-cell fraction ([5]; 0.03162 µM): 0.0136
- increase in dead-cell fraction ([5]; 0.1 µM): 0.0179
- increase in dead-cell fraction ([5]; 0.3162 µM): 0.0249
- increase in dead-cell fraction ([5]; 1 µM): 0.0149
- increase in dead-cell fraction ([5]; 3.162 µM): 0.0183
- increase in dead-cell fraction ([5]; 10 µM): 0.0445
- increase in dead-cell fraction (Flavopiridol [6]; 0.0001 µM): -0.0095
- increase in dead-cell fraction (Flavopiridol [6]; 0.0003162 µM): -0.003
- increase in dead-cell fraction (Flavopiridol [6]; 0.001 µM): -0.0007
- increase in dead-cell fraction (Flavopiridol [6]; 0.003162 µM): 0.0016
- increase in dead-cell fraction (Flavopiridol [6]; 0.01 µM): 0.0002
- increase in dead-cell fraction (Flavopiridol [6]; 0.03162 µM): -0.0106
- increase in dead-cell fraction (Flavopiridol [6]; 0.1 µM): -0.0044
- increase in dead-cell fraction (Flavopiridol [6]; 0.3162 µM): 0.0118
- increase in dead-cell fraction (Flavopiridol [6]; 1 µM): 0.223

— the supplement of paper PMC9663587
